Literature values as cited in publication PMC8288134, “Synthesis, potential antitumor activity, cell cycle analysis, and multitarget mechanisms of novel hydrazones incorporating a 4-methylsulfonylbenzene scaffold: a molecular docking study” (Journal of Enzyme Inhibition and Medicinal Chemistry, 2021).

Experiments:
SK-MEL-28 = test system: SK-MEL-28; set-up: method as in https://dtp.cancer.gov/dtpstandard/dwindex/index.jsp; conditions: reference drugs, ref https://dtp.cancer.gov/dtpstandard/dwindex/index.jsp; cited from earlier work
OVCAR-3 = test system: OVCAR-3; set-up: method as in https://dtp.cancer.gov/dtpstandard/dwindex/index.jsp; conditions: reference drugs, ref https://dtp.cancer.gov/dtpstandard/dwindex/index.jsp; cited from earlier work
UACC-257 = test system: UACC-257; set-up: method as in https://dtp.cancer.gov/dtpstandard/dwindex/index.jsp; conditions: reference drugs, ref https://dtp.cancer.gov/dtpstandard/dwindex/index.jsp; cited from earlier work
HOP-62 = test system: HOP-62; set-up: method as in https://dtp.cancer.gov/dtpstandard/dwindex/index.jsp; conditions: reference drugs, ref https://dtp.cancer.gov/dtpstandard/dwindex/index.jsp; cited from earlier work
HCT-15 = test system: HCT-15; set-up: method as in https://dtp.cancer.gov/dtpstandard/dwindex/index.jsp; conditions: reference drugs, ref https://dtp.cancer.gov/dtpstandard/dwindex/index.jsp; cited from earlier work
RXF 393 = test system: RXF 393; set-up: method as in https://dtp.cancer.gov/dtpstandard/dwindex/index.jsp; conditions: reference drugs, ref https://dtp.cancer.gov/dtpstandard/dwindex/index.jsp; cited from earlier work
SK-OV-3 = test system: SK-OV-3; set-up: method as in https://dtp.cancer.gov/dtpstandard/dwindex/index.jsp; conditions: reference drugs, ref https://dtp.cancer.gov/dtpstandard/dwindex/index.jsp; cited from earlier work
[1] = test system: leukaemia tumour cell lines; conditions: cited from earlier work
[2] = test system: melanoma tumour cell lines; conditions: cited from earlier work
CCRF-CEM = test system: CCRF-CEM; set-up: method as in https://dtp.cancer.gov/dtpstandard/dwindex/index.jsp; conditions: reference drugs, ref https://dtp.cancer.gov/dtpstandard/dwindex/index.jsp; cited from earlier work
IGROV1 = test system: IGROV1; set-up: method as in https://dtp.cancer.gov/dtpstandard/dwindex/index.jsp; conditions: reference drugs, ref https://dtp.cancer.gov/dtpstandard/dwindex/index.jsp; cited from earlier work
MOLT-4 = test system: MOLT-4; set-up: method as in https://dtp.cancer.gov/dtpstandard/dwindex/index.jsp; conditions: reference drugs, ref https://dtp.cancer.gov/dtpstandard/dwindex/index.jsp; cited from earlier work
SK-MEL-2 = test system: SK-MEL-2; set-up: method as in https://dtp.cancer.gov/dtpstandard/dwindex/index.jsp; conditions: reference drugs, ref https://dtp.cancer.gov/dtpstandard/dwindex/index.jsp; cited from earlier work
[3] = read-out: GI50 (subpanel average), reference drugs, ref https://dtp.cancer.gov/dtpstandard/dwindex/index.jsp
[4] = read-out: LC50 (subpanel average), reference drugs, ref https://dtp.cancer.gov/dtpstandard/dwindex/index.jsp
[5] = reference drugs, ref https://dtp.cancer.gov/dtpstandard/dwindex/index.jsp

**Q.** Which GI50 (SK-MEL-28) does the source give for `CNC(=O)c1cc(Oc2ccc(NC(=O)Nc3ccc(Cl)c(C(F)(F)F)c3)cc2)ccn1` [Sorafenib, sorafenib] here?
**A.** 2.51 µM

**Q.** What about the GI50 (OVCAR-3) of the same compound?
**A.** 3.16 µM

**Q.** What about the GI50 (UACC-257) of the same compound?
**A.** 1.99 µM

**Q.** And the GI50 (HOP-62)?
**A.** 1.99 µM

**Q.** And the GI50 (HCT-15)?
**A.** 2.51 µM

**Q.** What about the GI50 (RXF 393) of the same compound?
**A.** 2.51 µM

**Q.** And the GI50 (SK-OV-3)?
**A.** 2.51 µM

**Q.** What about the GI50 [1, 3] of the same compound?
**A.** 1.91 µM

**Q.** What about the CC50 [1, 4] of the same compound?
**A.** > 100 µM

**Q.** And the “TGI (subpanel average)” value [1, 5]?
**A.** 42.12 µM

**Q.** What about the GI50 [2, 3] of the same compound?
**A.** 1.87 µM

**Q.** And the CC50 [2, 4]?
**A.** 28.6 µM

**Q.** What about the “TGI (subpanel average)” value [2, 5] of the same compound?
**A.** 6.29 µM

**Q.** And the GI50 (CCRF-CEM)?
**A.** 1.99 µM

**Q.** And the GI50 (IGROV1)?
**A.** 2.51 µM

**Q.** And the GI50 (MOLT-4)?
**A.** 3.16 µM

**Q.** What about the GI50 (SK-MEL-2) of the same compound?
**A.** 1.99 µM
